Data from PubChem BioAssay (NCI).
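Five compound concentrations were applied to cells in 96-well plates for 48 hours; endpoints were derived by simple linear interpolation of the resulting dose-response curve. Here, GI50 denotes the concentration required for 50% inhibition of growth. At the TGI there is no net growth.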

Key:
Experiment in all cases: inhibition of tumour cell growth, NCI panel, 48 h; in the data active means GI50 below about 0.43 µM; inactive means the rest
786-0 renal = system: 786-0 renal
A498 renal = system: A498 renal
A549 NSCLC = system: A549 NSCLC
ACHN renal = system: ACHN renal
BT-549 breast = system: BT-549 breast
CAKI-1 renal = system: CAKI-1 renal
COLO 205 colon = system: COLO 205 colon
DU-145 prostate = system: DU-145 prostate
EKVX NSCLC = system: EKVX NSCLC
HCC-2998 colon = system: HCC-2998 colon
HCT-116 colon = system: HCT-116 colon
HCT-15 colon = system: HCT-15 colon
HOP-62 NSCLC = system: HOP-62 NSCLC
HOP-92 NSCLC = system: HOP-92 NSCLC
HS 578T breast = system: HS 578T breast
HT29 colon = system: HT29 colon
IGROV1 ovarian = system: IGROV1 ovarian
K-562 leukemia = system: K-562 leukemia
KM12 colon = system: KM12 colon
LOX IMVI melanoma = system: LOX IMVI melanoma
M14 melanoma = system: M14 melanoma
MALME-3M melanoma = system: MALME-3M melanoma
MCF7 breast = system: MCF7 breast
MDA-MB-231 breast = system: MDA-MB-231 breast
MDA-MB-435 = system: MDA-MB-435
MOLT-4 leukemia = system: MOLT-4 leukemia
NCI-H226 lung = system: NCI-H226 lung
NCI-H23 lung = system: NCI-H23 lung
NCI-H460 lung = system: NCI-H460 lung
NCI-H522 lung = system: NCI-H522 lung
NCI/ADR-RES ovarian = system: NCI/ADR-RES ovarian
OVCAR-3 ovarian = system: OVCAR-3 ovarian
OVCAR-4 ovarian = system: OVCAR-4 ovarian
OVCAR-5 ovarian = system: OVCAR-5 ovarian
OVCAR-8 ovarian = system: OVCAR-8 ovarian
PC-3 prostate = system: PC-3 prostate
RPMI-8226 leukemia = system: RPMI-8226 leukemia
RXF 393 renal = system: RXF 393 renal
SF-268 CNS = system: SF-268 CNS
SF-295 CNS = system: SF-295 CNS
SF-539 CNS = system: SF-539 CNS
SK-MEL-2 melanoma = system: SK-MEL-2 melanoma
SK-MEL-28 melanoma = system: SK-MEL-28 melanoma
SK-MEL-5 melanoma = system: SK-MEL-5 melanoma
SK-OV-3 ovarian = system: SK-OV-3 ovarian
SN12C renal = system: SN12C renal
SNB-19 CNS = system: SNB-19 CNS
SR leukemia = system: SR leukemia
SW-620 colon = system: SW-620 colon
T-47D breast = system: T-47D breast
TK-10 renal = system: TK-10 renal
U251 CNS = system: U251 CNS
UACC-257 melanoma = system: UACC-257 melanoma
UACC-62 melanoma = system: UACC-62 melanoma
UO-31 renal = system: UO-31 renal

Cn1ccc2c1SSSSS2
35.6 µM: TGI (M14 melanoma)
45.8 µM: TGI (MDA-MB-231 breast)
58.7 µM: TGI (786-0 renal)
42 µM: TGI (SN12C renal)
31.1 µM: TGI (HCT-116 colon)
43.2 µM: TGI (MCF7 breast)
52.9 µM: TGI (RPMI-8226 leukemia)
45.7 µM: TGI (CAKI-1 renal)
71 µM: TGI (LOX IMVI melanoma)
34.6 µM: TGI (UACC-62 melanoma)
73.3 µM: TGI (ACHN renal)
47.6 µM: TGI (T-47D breast)
36.1 µM: TGI (OVCAR-3 ovarian)
inactive: GI50 (786-0 renal) 26.4 µM | GI50 (A498 renal) > 100 µM | GI50 (A549 NSCLC) 52.2 µM | GI50 (ACHN renal) 28.4 µM | GI50 (BT-549 breast) 61.4 µM | GI50 (CAKI-1 renal) 22.4 µM | GI50 (COLO 205 colon) 15.1 µM | GI50 (DU-145 prostate) 31.7 µM | GI50 (EKVX NSCLC) 44.5 µM | GI50 (HCC-2998 colon) 17.1 µM | GI50 (HCT-116 colon) 17.4 µM | GI50 (HCT-15 colon) 33.8 µM | GI50 (HOP-62 NSCLC) > 100 µM | GI50 (HOP-92 NSCLC) 2.88 µM | GI50 (HS 578T breast) 28.8 µM | GI50 (HT29 colon) 24.1 µM | GI50 (IGROV1 ovarian) 35.9 µM | GI50 (K-562 leukemia) 23.2 µM | GI50 (KM12 colon) 17 µM | GI50 (LOX IMVI melanoma) 24.8 µM | GI50 (M14 melanoma) 18 µM | GI50 (MALME-3M melanoma) 11.2 µM | GI50 (MCF7 breast) 17.4 µM | GI50 (MDA-MB-231 breast) 17.9 µM | GI50 (MDA-MB-435) 23.7 µM | GI50 (MOLT-4 leukemia) 28.5 µM | GI50 (NCI-H226 lung) 21.5 µM | GI50 (NCI-H23 lung) 18.9 µM | GI50 (NCI-H460 lung) 47.6 µM | GI50 (NCI-H522 lung) 32.1 µM | GI50 (NCI/ADR-RES ovarian) 22.8 µM | GI50 (OVCAR-3 ovarian) 16.5 µM | GI50 (OVCAR-4 ovarian) 21.8 µM | GI50 (OVCAR-5 ovarian) 23 µM | GI50 (OVCAR-8 ovarian) 96.7 µM | GI50 (PC-3 prostate) 25.3 µM | GI50 (RPMI-8226 leukemia) 20.9 µM | GI50 (RXF 393 renal) 28.9 µM | GI50 (SF-268 CNS) 30.8 µM | GI50 (SF-295 CNS) 41.3 µM | GI50 (SF-539 CNS) 25.6 µM | GI50 (SK-MEL-2 melanoma) 49.6 µM | GI50 (SK-MEL-28 melanoma) 21.1 µM | GI50 (SK-MEL-5 melanoma) 16.5 µM | GI50 (SK-OV-3 ovarian) 37.5 µM | GI50 (SN12C renal) 21 µM | GI50 (SNB-19 CNS) 36 µM | GI50 (SR leukemia) 4.6 µM | GI50 (SW-620 colon) 29.1 µM | GI50 (T-47D breast) 11.8 µM | GI50 (TK-10 renal) 27.1 µM | GI50 (U251 CNS) 40 µM | GI50 (UACC-257 melanoma) 52.3 µM | GI50 (UACC-62 melanoma) 17.3 µM | GI50 (UO-31 renal) 36 µM
84.7 µM: TGI (SW-620 colon)
51 µM: TGI (NCI-H226 lung)
47.1 µM: TGI (OVCAR-5 ovarian)
36.4 µM: TGI (NCI-H23 lung)
71.2 µM: TGI (HS 578T breast)
56 µM: TGI (OVCAR-4 ovarian)
33.8 µM: TGI (SR leukemia)
66.4 µM: TGI (PC-3 prostate)
59.6 µM: TGI (HT29 colon)
33 µM: TGI (HCC-2998 colon)
7.66 µM: TGI (HOP-92 NSCLC)
69.8 µM: TGI (SF-539 CNS)
53.8 µM: TGI (MDA-MB-435)
41.6 µM: TGI (COLO 205 colon) | TGI (MALME-3M melanoma)
> 100 µM: TGI (A498 renal) | TGI (A549 NSCLC) | TGI (BT-549 breast) | TGI (DU-145 prostate) | TGI (EKVX NSCLC) | TGI (HCT-15 colon) | TGI (HOP-62 NSCLC) | TGI (IGROV1 ovarian) | TGI (K-562 leukemia) | TGI (MOLT-4 leukemia) | TGI (NCI-H460 lung) | TGI (NCI-H522 lung) | TGI (OVCAR-8 ovarian) | TGI (RXF 393 renal) | TGI (SF-268 CNS) | TGI (SF-295 CNS) | TGI (SK-MEL-2 melanoma) | TGI (SK-OV-3 ovarian) | TGI (SNB-19 CNS) | TGI (U251 CNS) | TGI (UACC-257 melanoma) | TGI (UO-31 renal)
35.9 µM: TGI (SK-MEL-5 melanoma)
47.5 µM: TGI (SK-MEL-28 melanoma)
35.8 µM: TGI (KM12 colon)
54.7 µM: TGI (NCI/ADR-RES ovarian)
68.9 µM: TGI (TK-10 renal)
